Measured values reported in patent publication US20090281025A1, “INHIBITION OF TUMOR GROWTH AND METASTASIS BY ATF2-DERIVED PEPTIDES” (Mount Sinai School Of Medicine of New York University, priority 2004, published 2009).
Entries after “also recorded” stand apart in the source; their conditions may differ.

How the values were obtained:
[1] = tested on: LU1205 human melanoma cells; test: Growth of LU1205 human melanoma tumors expressing ATF2 peptide in nude mice; type: in vivo, mouse
From the text: (§1) LU1205 or FEMX human melanoma tumor-derived cell lines that constitutively express ATF2^51-100 peptide or that contain control vector were each injected subcutaneously into a group of 6 nude mice (10^6 cells per injection) per cell line per experiment. […] The data shown represent three experiments. Bars represent standard deviation, P<0.0015. […] The data shown represent three experiments. Bars represent standard deviation, P<0.0021.
(§2) The ability of expressed ATF2^51-100 peptide to affect the tumorigenicity of human melanoma cells in vivo was examined. To this end, growth of LU1205 and FEMX human melanoma cells were monitored in nude mice in the presence or absence of treatment that induced apoptosis in vitro. LU1205, FEMX and SW-1 cells that express control or ATF2^51-100 peptide were trypsinized, resuspended in PBS and injected SC (1×10^6) into 6-7 week old mice in the lower flank. When the tumor reached the size of about 50 mm^3, 10 μM of SB203580 was injected into 4 areas of the LU1205 tumors every 4 days during a 2 week period. For FEMX tumors, UCN-01 (5 mg/Kg) was fed by gavage, three times per week for a total of 2 weeks. Tumor growth was monitored every two days. Tissue samples were fixed in formalin and embedded in paraffin. Hematoxylin and eosin (H&E), TUNEL staining was performed as previously described (Bhoumik et al., Clin. Cancer Res., 2001; 2:331-342).

[2] = tested on: FEMX human melanoma cells; test: Growth and TUNEL apoptosis of FEMX human melanoma tumors expressing ATF2 peptide in nude mice; type: in vivo
From the text: as §1, §2

[3] = tested on: SW1 cells; test: Tumor growth of SW1 cells constitutively expressing ATF2 peptides, injected subcutaneously; type: in vivo, mouse; conditions: 10^6 SW1 cells SC, 18 days; control construct 1100 mm^3
Procedure: SW1 cells, which constitutively express the peptides indicated in FIG. 4A, were analyzed to detect expression of ATF2 peptides at the RNA level using RT-PCR. The indicated MW bands reflect the expected size product. SW1 cells (10^6) were injected subcutaneously into […] mice and tumor growth was monitored for 18 days, at which point tumors were removed and their size carefully assessed (FIG. 4B). Each group included 6 animals and each experiment was performed twice (P<0.01; T-test).
Inhibition of Tumor Growth. To examine the importance of the JNK association domain on ATF2, the possible role of a smaller peptide containing an intact JNK binding site (i.e., amino acids M^51T^52 of ATF2) was examined. To this end, three peptides of differing sizes (amino acids 51-80, 51-70, and 51-60) were compared to ATF2^51-100 peptide in their ability to inhibit tumor growth of SW1 cells in vivo. RT-PCR reactions confirmed the expression of these peptides' transcripts in the SW1 cells (FIG. 4A). […] However, expression of the 50aa peptide in these cells (constitutive expression based on selection of drug-resistant cells) decreased tumor size to 300 mm^3. Strikingly, constitutive expression of each of the 3 shorter peptides also elicited inhibition of melanoma growth that varied from 400-600 mm^3 (FIG. 4B). […] Further evaluation was performed on this 10 amino acid peptide.

[4] = tested on: TRE-Luc; test: TRE-Luc luciferase reporter assay in SW1 cells; type: cell-based, mouse; conditions: SW1 cells expressing peptide, luciferase after 18 hours
Procedure: (§3) SW1 cells constitutively expressing the indicated ATF2 peptides were transfected with either TRE-Luc (FIG. 5A) or with Jun2-Luc (FIG. 5B), and proteins were prepared for analysis of luciferase activity after 18 hours. Analysis was performed in duplicate, and the data reflect three independent experiments. SW1 cells expressing the ATF2 peptides were analyzed to establish the degree of spontaneous (basal) apoptosis as well as apoptosis 24 hours following treatment with the chemotherapeutic drug UCN-01 (FIG. 5C). The data represent triplicate analysis reproduced three times.
(§4) Alteration of ATF2 Transcriptional Activity. Assessed next was whether the short peptide caused any change in transcriptional activity mediated by ATF2 and its heterodimeric partners, using the TRE and Jun2 promoter sequences linked to the Luciferase marker gene. These reporter constructs (0.3 μg) were cotransfected with the respective expression vectors into melanoma cells (5×10^5) using Lipofectamine (Invitrogen). Luciferase activity was measured using the Luciferase assay system (Promega).

[5] = tested on: Jun2-Luc; test: Jun2-Luc luciferase reporter assay in SW1 cells; type: cell-based, mouse; conditions: SW1 cells expressing peptide, luciferase after 18 hours
Procedure: as §3, §4

[6] = tested on: SW1 melanoma cells; test: Apoptosis of SW1 cells by FACS (hypodiploid nuclei); type: cell-based, mouse; conditions: SW1 cells expressing peptide, given as control-to-peptide increase
Procedure: as §3
(§5) Effect on Apoptosis. Assessed next was the degree of apoptosis in SW1 cells under normal growth (spontaneous) as well as following treatment with chemotherapeutic drugs. Cells were analyzed to detect spontaneous (basal) or induced apoptosis [following treatment with the kinase inhibitor UCN-01 (kindly provided by NCI repository) for 36 hours]. Apoptosis was measured by using FACS (Ivanov et al., Mol. Cell, 2001, 7:517-28) to quantify the percentage of hypodiploid nuclei undergoing DNA fragmentation. Nucleation as a marker of apoptosis was monitored via DAPI staining of cells at indicated time points after their treatment. Caspase activity was monitored by immunoblots using antibodies to caspase 9 (Santa Cruz). PARP cleavage was monitored by corresponding antibodies (PharMingen).

[7] = tested on: Human melanoma cells LU1205; test: Caspase and PARP cleavage immunoblot in LU1205 cells; type: cell-based; conditions: peptides by transfection, UCN-01 (5 μm) 24 hours
Procedure: (§6) Human melanoma cells LU1205 were transfected with the nucleic acid molecules that encode either ATF2^51-100 peptide or ATF2^51-60 peptide. Twenty-four hours after transfection, cells were treated with of UCN-01 (5 μm) for 24 hours. Immunoblotting analysis was performed using caspase 9 and PARP antibodies, and β-actin was used as a loading control (FIG. 6A). The same experiment was performed in SW-1 cells (FIG. 6B). Stars point to the position of the uncleaved form whereas arrows point to the cleaved products.
as §5

[8] = tested on: SW-1 cells; test: Caspase and PARP cleavage immunoblot in SW-1 cells; type: cell-based, mouse; conditions: peptides by transfection, UCN-01 (5 μm) 24 hours
Procedure: as §6, §5

[9] = tested on: human melanoma cells; conditions: cited from earlier work
[10] = tested on: MCF7 human breast cancer cells; conditions: cited from earlier work
[11] = tested on: early-stage melanoma, melanocytes, in vitro transformed 293T cells; conditions: cited from earlier work
[12] = tested on: JNK; conditions: cited from earlier work

ATF2^51-100: amino-terminal peptide of ATF2, amino acid residue 51 to 100 (about a 50 amino acid peptide), expressed in tumor cells (MTLKFGPARNDSVIVADQTPTPTRFLKNCEEVGLFNELASPFENEFKKAS; UniProt P15336 51-100, looked up, fragment)
tumor growth rate ([1]; LU1205 cells constitutively expressing peptide, SC in nude mice): reduced the growth rates; also recorded: inhibits growth
tumor growth with additional treatment ([1]; peptide-expressing LU1205 tumors plus p38 inhibitor SB203580 10 μM intratumoral): additional decrease in growth
tumor growth rate ([2]; FEMX cells constitutively expressing peptide, SC in nude mice): reduced the growth rates; also recorded: inhibits growth
tumor growth with additional treatment ([2]; peptide-expressing FEMX tumors plus UCN-01 5 mg/Kg by gavage): additional decrease in growth
degree of apoptosis in tumors (TUNEL) ([2]; peptide-expressing tumors upon exposure to additional treatment): marked increase in the degree of apoptosis
tumor size [3]: 300 mm^3
TRE-Luc activity [4]: marked increase
Jun2-Luc transcriptional activity [5]: efficiently inhibited
spontaneous (basal) apoptosis ([6]; absence of treatment): 12-55%
UCN-01-induced apoptosis ([6]; treated with UCN-01): 20-77%
activation of caspase 9 (cleavage fragments) [7]: activation of caspase 9 even prior to treatment with UCN-01
activation of caspase 9 (cleavage fragments) [8]: activation of caspase 9 even prior to treatment with UCN-01
degree of programmed cell death (spontaneous and induced apoptosis) ([9]; combined with an inhibitor of the p38 catalytic activity): increase in the degree of programmed cell death
sensitivity to UV radiation or mitomycin C, adriamycin and verapamil, or UCN-01 (apoptosis assays) ([9]; compared with three other 50 amino acid amino-terminal ATF2 peptides): most efficient increase in the sensitivity
cell surface expression of Fas ([9]; late stage melanoma cells): increased cell surface expression of Fas
sensitization by ATF2 peptide [10]: also observed
sensitization by ATF2 peptide [11]: not in early-stage melanoma, or melanocytes, or in in vitro transformed 293T cells
basal JNK activity [12]: increased basal JNK activity
binding to JNK [12]: binds to JNK
